From patent US20040115792A1, “Yeast strain for testing the geno- and cytotoxicity of complex environmental contaminations” (priority 2000, published 2004)

How the values were obtained:
[1] = test system: cytochrome-P450-dependent aromatase; settings: marine gastropods; Bettin et al. 1995; cited from earlier work
[2] = test system: pdr5yor1snq2 triple-mutant yeast strain; assay: Growth and fluorescence test in the presence of inhibitors, pdr5yor1snq2 triple-mutant strain; type: cell-based, Saccharomyces cerevisiae; settings: 0.05 and 0.5 ng/ml mitomycin C, 0.01 and 0.1 ng/ml TPhT, 30° C., 8 hours
[3] = test system: pma1-DsRed1 reporter in yeast strain HLY5RG-12B2; assay: Cytotoxic signaling: DsRed1 under pma1 promoter, red fluorescence; settings: depending on concentration: mitomycin C 0.05 and 0.5 ng/ml, TPhT 0.01 and 0.1 ng/ml, 8 hours, 30° C.
Protocol: (§1) Cultures of Saccharomyces cerevisiae wild strain, of the pdr5yor1snq2 triple-mutant yeast strain and of the genotoxically and cytotoxically signaling strain HLY5RG-12B2 expressing Dsred and egfp were grown in complete medium YPD (2% yeast extract, 1% peptone) with 2% D-glucose, pH 5.0, at 30° C. over night with shaking.
For the cytotoxic substance testing, a spectral excitation at 558 nm was performed, and the intensity of the emission maxima at 583 nm (specific of DsRedp) was measured for all cell suspensions. In addition, a determination of the simple growth of the cells by measuring the optical density at 600 nm was performed.

[4] = test system: rad54::egfp reporter in yeast strain HLY5RG-12B2; assay: Genotoxic signaling: egfp under rad54 promoter, green fluorescence; settings: depending on concentration: mitomycin C 0.05 and 0.5 ng/ml, TPhT 0.01 and 0.1 ng/ml, 8 hours, 30° C.
Protocol: as §1
Subsequently, a spectral excitation at 489 nm was performed for the genotoxic substance testing, and the intensity of the emission maxima at 508 nm (specific of egfp) was measured for all cell suspensions.

[5] = test system: Saccharomyces cerevisiae wild strain; assay: Growth and fluorescence test in the presence of inhibitors, wild strain; type: cell-based; settings: 0.05 and 0.5 ng/ml mitomycin C, 0.01 and 0.1 ng/ml TPhT, 30° C., 8 hours

tributyltin [TBT]
effect on aromatization of androgens into estrogens [1]: inhibits the aromatization of androgens into estrogens

triphenyltin [TPhT]
growth rate (doubling time) [2]: 180 min
specific red (583 nm) or green (508 nm) fluorescence [2]: without showing a specific red (cytotoxic potential) or green (genotoxic potential) fluorescence
red fluorescence, emission maximum 583 nm (cytotoxic potential) [3]: increasing specific red fluorescence
green fluorescence, emission maximum 508 nm (genotoxic potential) [4]: no increasing green fluorescence
growth rate (doubling time) [5]: 90 min
specific red (583 nm) or green (508 nm) fluorescence [5]: without showing a specific red (cytotoxic potential) or green (genotoxic potential) fluorescence
